Experimental data reported in ChEMBL document CHEMBL3879901, “Substituted isoquinolin-1(2H)-ones, and methods of use thereof” (2012).
Calls of active or inactive are those of the source. The rule behind the calls is not given here.

How the values were obtained:
Homo sapiens = species on record: Homo sapiens; assay: Inhibition of allergen-induced activation of basophilic granulocytes in human whole blood preincubated for 20 mins followed by allergen induction measured after 20 mins using sub micromolar range of compound by basotest assay; assay type: functional, tissue-based
PI3K p110 beta/p85 alpha = PI3K p110 beta/p85 alpha (Homo sapiens, UniProt P42338); assay: Inhibition of N-terminal His6-tagged recombinant full-length human p110beta/untagged recombinant full length p85alpha expressed in baculovirus infected Sf21 cells using phosphatidylinositol as substrate in presence of gamma-32P-ATP after 5 mins by thin layer chromatographic method
Sequence of PI3K p110 beta/p85 alpha (P27986 whole entry): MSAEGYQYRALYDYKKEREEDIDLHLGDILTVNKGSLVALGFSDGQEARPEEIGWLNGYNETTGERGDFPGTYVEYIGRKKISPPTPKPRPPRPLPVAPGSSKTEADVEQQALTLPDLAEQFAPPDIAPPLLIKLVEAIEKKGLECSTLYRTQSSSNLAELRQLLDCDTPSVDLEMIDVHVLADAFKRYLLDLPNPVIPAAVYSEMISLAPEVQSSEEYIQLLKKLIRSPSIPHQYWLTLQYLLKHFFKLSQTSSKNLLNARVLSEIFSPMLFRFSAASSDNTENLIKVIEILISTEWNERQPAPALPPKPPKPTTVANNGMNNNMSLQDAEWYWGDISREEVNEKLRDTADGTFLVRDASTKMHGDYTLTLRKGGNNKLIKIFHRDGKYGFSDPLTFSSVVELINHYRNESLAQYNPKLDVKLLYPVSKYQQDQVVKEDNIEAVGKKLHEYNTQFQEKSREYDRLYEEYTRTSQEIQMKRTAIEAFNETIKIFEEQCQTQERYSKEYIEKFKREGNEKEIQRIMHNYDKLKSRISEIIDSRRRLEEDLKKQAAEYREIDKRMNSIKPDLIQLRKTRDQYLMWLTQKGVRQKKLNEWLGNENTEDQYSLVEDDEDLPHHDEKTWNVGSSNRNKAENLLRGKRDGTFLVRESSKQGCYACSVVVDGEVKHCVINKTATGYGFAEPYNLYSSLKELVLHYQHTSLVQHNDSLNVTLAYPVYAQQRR
Sequence of PI3K p110 beta/p85 alpha (P42338 whole entry): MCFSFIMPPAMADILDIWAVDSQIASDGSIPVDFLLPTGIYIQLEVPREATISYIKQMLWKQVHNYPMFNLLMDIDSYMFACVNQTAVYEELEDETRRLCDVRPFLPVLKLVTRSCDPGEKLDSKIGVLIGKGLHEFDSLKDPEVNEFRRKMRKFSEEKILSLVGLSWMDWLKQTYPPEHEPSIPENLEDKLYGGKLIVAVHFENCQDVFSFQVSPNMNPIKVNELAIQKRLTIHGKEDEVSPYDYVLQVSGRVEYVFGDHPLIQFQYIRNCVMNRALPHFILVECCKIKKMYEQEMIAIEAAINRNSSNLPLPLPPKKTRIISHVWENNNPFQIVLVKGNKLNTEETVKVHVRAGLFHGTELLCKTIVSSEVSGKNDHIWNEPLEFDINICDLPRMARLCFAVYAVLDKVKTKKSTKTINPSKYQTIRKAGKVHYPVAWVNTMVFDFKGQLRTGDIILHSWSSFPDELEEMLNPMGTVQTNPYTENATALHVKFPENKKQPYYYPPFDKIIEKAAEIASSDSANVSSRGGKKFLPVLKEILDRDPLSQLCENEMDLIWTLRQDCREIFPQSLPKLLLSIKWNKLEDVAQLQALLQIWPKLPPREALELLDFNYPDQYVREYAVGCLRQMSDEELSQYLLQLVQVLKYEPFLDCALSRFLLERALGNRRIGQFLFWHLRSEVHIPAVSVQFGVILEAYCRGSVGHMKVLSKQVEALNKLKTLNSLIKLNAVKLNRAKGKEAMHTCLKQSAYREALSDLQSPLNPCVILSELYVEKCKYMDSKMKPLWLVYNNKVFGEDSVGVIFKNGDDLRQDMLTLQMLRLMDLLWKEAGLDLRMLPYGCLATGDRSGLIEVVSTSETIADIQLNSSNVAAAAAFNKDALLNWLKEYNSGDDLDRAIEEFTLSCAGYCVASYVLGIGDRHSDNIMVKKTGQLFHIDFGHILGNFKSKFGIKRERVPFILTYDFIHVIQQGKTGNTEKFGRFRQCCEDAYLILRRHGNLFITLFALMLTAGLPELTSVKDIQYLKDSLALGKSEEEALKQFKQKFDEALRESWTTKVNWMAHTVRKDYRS

Rattus norvegicus [1] = assay: Antiarthritic activity in type 2 collagen-induced Lewis rat arthritis model assessed as reduction in ankle diameter at 10 to 60 mg/kg, po administered every 12 hrs for 16 days measured on day 9 of compound dosing to day 17 of post last dose relative to vehicle-treated control; assay type: functional, organism-based
Rattus norvegicus [2] = assay: Antiarthritic activity in type 2 collagen-induced po dosed Lewis rat arthritis model assessed as reduction in knee pannus administered every 12 hrs for 16 days measured on day 17 of post last dose by toluidine blue staining-based assay; assay type: functional, organism-based
Rattus norvegicus [3] = assay: Antiarthritic activity in type 2 collagen-induced Lewis rat arthritis model assessed as reduction in serum anti-type 2 collagen levels at 60 mg/kg, po administered every 12 hrs for 16 days measured on day 17 of post last dose by ELISA relative to control; assay type: functional; set-up: scale not given: the % may be the effect or the level left
Rattus norvegicus [4] = assay: Antiarthritic activity in type 2 collagen-induced po dosed Lewis rat arthritis model assessed as reduction in bone resorption in knee administered every 12 hrs for 16 days measured on day 17 of post last dose by toluidine blue staining-based assay; assay type: functional, organism-based
Rattus norvegicus [5] = assay: Antiarthritic activity in type 2 collagen-induced po dosed Lewis rat arthritis model assessed as reduction in cartilage damage in knee administered every 12 hrs for 16 days measured on day 17 of post last dose by toluidine blue staining-based assay; assay type: functional, organism-based
Rattus norvegicus [6] = assay: Antiarthritic activity in type 2 collagen-induced po dosed Lewis rat arthritis model assessed as reduction in knee inflammation administered every 12 hrs for 16 days measured on day 17 of post last dose by toluidine blue staining-based assay; assay type: functional, organism-based
[7] = target: RAC-alpha serine/threonine-protein kinase (Mus musculus) (UniProt P31750); assay: […] of anti-CD3-stimulated Akt phosphorylation in mouse unfractionated splenocytes preincubated for 15 mins followed by anti-CD3 stimulation measured after 5 to 15 mins by phosflow method; assay type: cell-based
Sequence of RAC-alpha serine/threonine-protein kinase (Mus musculus) (P31750 whole entry): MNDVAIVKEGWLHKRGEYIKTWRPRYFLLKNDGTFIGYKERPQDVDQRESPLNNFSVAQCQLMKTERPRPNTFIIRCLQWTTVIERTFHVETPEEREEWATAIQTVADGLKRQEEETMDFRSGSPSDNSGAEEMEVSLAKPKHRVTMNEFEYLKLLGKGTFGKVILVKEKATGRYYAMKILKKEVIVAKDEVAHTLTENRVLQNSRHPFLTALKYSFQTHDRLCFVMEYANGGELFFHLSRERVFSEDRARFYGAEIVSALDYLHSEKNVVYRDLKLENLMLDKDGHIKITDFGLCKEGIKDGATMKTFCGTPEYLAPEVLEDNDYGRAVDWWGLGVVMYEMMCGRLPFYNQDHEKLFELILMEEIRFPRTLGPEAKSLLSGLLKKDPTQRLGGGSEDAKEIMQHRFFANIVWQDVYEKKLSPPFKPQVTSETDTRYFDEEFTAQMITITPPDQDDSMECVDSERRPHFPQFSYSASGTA

[8] = target: RAC-alpha serine/threonine-protein kinase (Homo sapiens) (UniProt P31749); assay: […] of anti-CD3-stimulated Akt phosphorylation in human PBMC preincubated for 15 mins followed by anti-CD3 stimulation measured after 5 to 15 mins by phosflow method
Sequence of RAC-alpha serine/threonine-protein kinase (Homo sapiens) (P31749 whole entry): as the sequence (P31750 whole entry) above, with N2S, S50A, A100T, R112K, T117E, T389K, N410G, D415H counted along it

[9] = target: Phosphatidylinositol 3-kinase (Mus musculus) (UniProt P26450+P42337); assay: Inhibition of PI3K in mouse unfractionated splenocytes assessed as decrease in anti-CD3-stimulated Akt phosphorylation at S473 preincubated for 15 mins followed by anti-CD3 stimulation measured after 5 to 15 mins by phosflow method; assay type: cell-based
Sequence of Phosphatidylinositol 3-kinase (Mus musculus) (P26450 whole entry, looked up): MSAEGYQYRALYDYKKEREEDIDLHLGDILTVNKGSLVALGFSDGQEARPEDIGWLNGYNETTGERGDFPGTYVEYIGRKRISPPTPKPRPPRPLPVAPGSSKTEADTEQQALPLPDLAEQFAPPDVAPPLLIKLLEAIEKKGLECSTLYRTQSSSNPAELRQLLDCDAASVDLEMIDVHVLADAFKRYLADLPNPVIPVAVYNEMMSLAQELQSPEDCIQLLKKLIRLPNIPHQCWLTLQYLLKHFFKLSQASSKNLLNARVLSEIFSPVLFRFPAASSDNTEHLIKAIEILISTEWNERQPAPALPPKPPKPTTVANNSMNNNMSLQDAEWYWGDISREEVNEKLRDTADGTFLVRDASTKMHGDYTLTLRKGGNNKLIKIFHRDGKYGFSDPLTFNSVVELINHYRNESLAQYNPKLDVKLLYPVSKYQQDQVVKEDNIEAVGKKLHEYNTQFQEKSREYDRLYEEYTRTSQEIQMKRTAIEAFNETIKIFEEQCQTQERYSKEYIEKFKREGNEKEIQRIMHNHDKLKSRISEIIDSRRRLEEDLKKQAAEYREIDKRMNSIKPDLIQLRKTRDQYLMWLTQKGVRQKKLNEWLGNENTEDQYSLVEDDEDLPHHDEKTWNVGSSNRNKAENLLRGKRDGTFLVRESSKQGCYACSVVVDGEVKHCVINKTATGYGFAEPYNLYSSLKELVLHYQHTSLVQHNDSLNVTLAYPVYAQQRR
Sequence of Phosphatidylinositol 3-kinase (Mus musculus) (P42337 whole entry, looked up): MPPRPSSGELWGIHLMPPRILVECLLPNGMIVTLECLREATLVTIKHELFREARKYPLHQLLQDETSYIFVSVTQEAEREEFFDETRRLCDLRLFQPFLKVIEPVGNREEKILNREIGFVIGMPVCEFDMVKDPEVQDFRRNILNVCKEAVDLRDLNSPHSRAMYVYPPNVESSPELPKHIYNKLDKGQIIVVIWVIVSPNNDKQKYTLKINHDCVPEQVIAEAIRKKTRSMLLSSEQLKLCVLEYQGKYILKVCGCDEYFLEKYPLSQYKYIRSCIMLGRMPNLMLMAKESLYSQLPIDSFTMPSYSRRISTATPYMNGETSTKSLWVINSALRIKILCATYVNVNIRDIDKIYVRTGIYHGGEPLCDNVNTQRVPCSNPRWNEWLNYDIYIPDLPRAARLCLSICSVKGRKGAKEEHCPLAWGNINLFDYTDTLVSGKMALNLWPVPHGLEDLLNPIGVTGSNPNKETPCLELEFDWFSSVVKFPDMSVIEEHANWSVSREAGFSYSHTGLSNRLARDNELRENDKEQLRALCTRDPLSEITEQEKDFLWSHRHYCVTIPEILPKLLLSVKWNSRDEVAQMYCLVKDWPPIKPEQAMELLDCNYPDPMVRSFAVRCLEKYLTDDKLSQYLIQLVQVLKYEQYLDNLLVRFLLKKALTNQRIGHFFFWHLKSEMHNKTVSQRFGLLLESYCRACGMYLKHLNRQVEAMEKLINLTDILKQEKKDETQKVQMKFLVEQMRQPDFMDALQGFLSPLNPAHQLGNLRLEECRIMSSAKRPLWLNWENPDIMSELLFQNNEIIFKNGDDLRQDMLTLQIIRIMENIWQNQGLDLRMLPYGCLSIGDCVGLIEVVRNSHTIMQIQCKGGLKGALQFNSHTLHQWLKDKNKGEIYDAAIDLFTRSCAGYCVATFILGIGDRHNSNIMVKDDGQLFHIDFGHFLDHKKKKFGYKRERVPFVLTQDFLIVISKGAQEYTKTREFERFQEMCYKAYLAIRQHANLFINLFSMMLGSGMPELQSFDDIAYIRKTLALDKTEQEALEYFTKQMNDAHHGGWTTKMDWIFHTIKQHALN

[10] = target: PI3-kinase class I (Homo sapiens) (UniProt P27986+P42338+P48736+P42336+O00459+O00329+Q8WYR1+Q92569); assay: Inhibition of PI3K in human PBMC assessed as decrease in anti-CD3-stimulated Akt phosphorylation at S473 preincubated for 15 mins followed by anti-CD3 stimulation measured after 5 to 15 mins by phosflow method

| Activity [7] | Activity [8] | inhibition [9] | inhibition [10] | Compound | inhibition (Homo sapiens) | IC50 (PI3K p110 beta/p85 alpha) [nM] | Activity (Rattus norvegicus [1]) | Activity (Rattus norvegicus [2]) | Activity (Rattus norvegicus [3]) [%] | Activity (Rattus norvegicus [4]) | Activity (Rattus norvegicus [5]) | Activity (Rattus norvegicus [6]) |
| --- | --- | --- | --- | --- | --- | --- | --- | --- | --- | --- | --- | --- |
|  |  |  |  | Cc1ccccc1-n1c(Cn2nc(-c3cc(O)cc(F)c3)c3c(N)ncnc32)cc2cccc(C)c2c1=O | Active | < 1000 | Active | Dose-dependent effect | 24 | Dose-dependent effect | Dose-dependent effect | Dose-dependent effect |
| Active | Active | Active | Active | CO[C@H]1C[C@@H]2CC[C@@H](C)[C@@](O)(O2)C(=O)C(=O)N2CCCC[C@H]2C(=O)O[C@H]([C@H](C)C[C@@H]2CC[C@@H](O)[C@H](OC)C2)CC(=O)[C@H](C)/C=C(\C)[C@@H](O)[C@@H](OC)C(=O)[C@H](C)C[C@H](C)/C=C/C=C/C=C/1C |  |  |  |  |  |  |  |  |
